# Source: PMC3261128, “Modulation of phosphofructokinase (PFK) from Setaria cervi, a bovine filarial parasite, by different effectors and its interaction with some antifilarials” (2011)
# Assays:
# Type in all cases: biochemical
# [1] = system: T1, Phosphofructokinase (PFK); details: 5000 µM
# T1 construct: native enzyme purified from adult female worms
# [2] = molecular target: T1, Phosphofructokinase (PFK); assay: coupled enzyme assay (NADH oxidation), Ki and Hill plot
# [3] = molecular target: T2, rat liver PFK (phosphofructokinase) (Rattus norvegicus, UniProt P30835); assay: as above
# T2 construct: gene Pfkl; native enzyme partially purified from rat liver
# T2 sequence (P30835 2-780): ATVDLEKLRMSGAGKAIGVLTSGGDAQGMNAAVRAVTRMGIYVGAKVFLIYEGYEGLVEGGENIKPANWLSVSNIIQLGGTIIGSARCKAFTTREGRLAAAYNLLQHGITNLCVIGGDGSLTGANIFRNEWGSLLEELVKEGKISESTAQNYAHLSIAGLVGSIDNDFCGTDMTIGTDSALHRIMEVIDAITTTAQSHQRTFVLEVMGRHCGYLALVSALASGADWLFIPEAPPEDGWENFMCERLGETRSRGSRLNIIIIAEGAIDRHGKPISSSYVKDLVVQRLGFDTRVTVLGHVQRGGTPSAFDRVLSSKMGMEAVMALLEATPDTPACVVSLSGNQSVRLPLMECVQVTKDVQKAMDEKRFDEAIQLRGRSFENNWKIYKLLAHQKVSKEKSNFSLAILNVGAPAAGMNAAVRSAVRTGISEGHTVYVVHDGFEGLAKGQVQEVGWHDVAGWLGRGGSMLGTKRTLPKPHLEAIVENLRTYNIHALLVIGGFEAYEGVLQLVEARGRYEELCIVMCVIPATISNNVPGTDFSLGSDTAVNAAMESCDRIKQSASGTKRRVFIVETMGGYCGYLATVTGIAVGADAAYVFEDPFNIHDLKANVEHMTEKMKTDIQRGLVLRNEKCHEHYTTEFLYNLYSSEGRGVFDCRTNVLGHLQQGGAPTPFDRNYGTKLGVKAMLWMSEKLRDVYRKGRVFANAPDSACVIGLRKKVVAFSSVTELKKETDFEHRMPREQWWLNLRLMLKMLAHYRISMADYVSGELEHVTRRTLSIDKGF
# Excerpt: coupled enzyme assay (NADH oxidation), Ki and Hill plot on rat liver PFK (phosphofructokinase) | inhibition of rat liver PFK was of the non-competitive type (Figure 5A) and the Ki value of suramin
SMILES,% Residual Activity / 5 [1],Ki [2],Ki [3]
c1ccc([C@H]2CN3CCSC3=N2)cc1 [Levamisole],45,–,–
Cc1ccc(C(=O)Nc2ccc(S(=O)(=O)O)c3cc(S(=O)(=O)O)cc(S(=O)(=O)O)c23)cc1NC(=O)c1cccc(NC(=O)Nc2cccc(C(=O)Nc3cc(C(=O)Nc4ccc(S(=O)(=O)O)c5cc(S(=O)(=O)O)cc(S(=O)(=O)O)c45)ccc3C)c2)c1 [suramin],–,1.1 ± 0.1 nM,40 ± 1 nM
